Data on 51 compounds can be found in patent publication US8686143B2, “Compounds useful as inhibitors of Janus kinases” (Vertex Pharmaceuticals Incorporated, priority 2007, dated 2014).

One experiment has as its target T1, JAK3 (Homo sapiens, UniProt P52333).
T1 sequence (P52333 1-1124): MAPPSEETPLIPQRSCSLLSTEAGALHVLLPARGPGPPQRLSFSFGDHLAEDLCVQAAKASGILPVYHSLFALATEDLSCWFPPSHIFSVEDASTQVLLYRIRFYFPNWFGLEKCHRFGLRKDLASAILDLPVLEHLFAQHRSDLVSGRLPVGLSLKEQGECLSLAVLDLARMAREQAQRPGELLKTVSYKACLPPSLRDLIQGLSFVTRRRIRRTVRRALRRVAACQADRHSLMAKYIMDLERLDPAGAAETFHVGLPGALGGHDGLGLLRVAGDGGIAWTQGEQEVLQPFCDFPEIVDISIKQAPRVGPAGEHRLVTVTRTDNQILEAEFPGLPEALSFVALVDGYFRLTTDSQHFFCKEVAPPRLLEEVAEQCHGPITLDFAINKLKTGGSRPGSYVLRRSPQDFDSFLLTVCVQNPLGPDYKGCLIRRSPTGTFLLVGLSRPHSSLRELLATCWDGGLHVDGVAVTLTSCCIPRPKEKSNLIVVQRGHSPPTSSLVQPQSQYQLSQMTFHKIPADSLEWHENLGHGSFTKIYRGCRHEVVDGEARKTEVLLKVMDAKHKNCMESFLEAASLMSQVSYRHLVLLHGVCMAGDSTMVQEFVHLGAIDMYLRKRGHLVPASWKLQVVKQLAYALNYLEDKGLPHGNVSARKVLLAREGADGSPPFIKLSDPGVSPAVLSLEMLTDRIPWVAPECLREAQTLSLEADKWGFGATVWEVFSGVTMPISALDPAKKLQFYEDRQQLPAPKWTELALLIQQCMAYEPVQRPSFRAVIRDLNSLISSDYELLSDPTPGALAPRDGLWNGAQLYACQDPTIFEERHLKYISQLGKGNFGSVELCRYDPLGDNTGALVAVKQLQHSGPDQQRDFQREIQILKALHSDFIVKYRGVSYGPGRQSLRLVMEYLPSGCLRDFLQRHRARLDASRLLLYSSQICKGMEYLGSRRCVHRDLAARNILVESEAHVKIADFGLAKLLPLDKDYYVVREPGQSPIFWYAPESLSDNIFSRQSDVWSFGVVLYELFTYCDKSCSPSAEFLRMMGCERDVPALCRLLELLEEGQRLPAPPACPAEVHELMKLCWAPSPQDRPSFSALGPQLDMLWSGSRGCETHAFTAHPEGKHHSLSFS
In words: JAK3 Inhibition Assay (33P incorporation into poly(Glu)4Tyr). Particulars: 1 nM JAK3, 5 μM ATP, 1 μM poly(Glu)4Tyr, 25° C. The experiment is classed as biochemical. The procedure:
Compounds were screened for their ability to inhibit JAK3 using the assay shown below. Reactions were carried out in a kinase buffer containing 100 mM HEPES (pH 7.4), 1 mM DTT, 10 mM MgCl2, 25 mM NaCl, and 0.01% BSA. Substrate concentrations in the assay were 5 μM ATP (200 uCi/μmole ATP) and 1 μM poly(Glu)4Tyr. Reactions were carried out at 25° C. and 1 nM JAK3.
To each well of a 96 well polycarbonate plate was added 1.5 μl of a candidate JAK3 inhibitor along with 50 μlof kinase buffer containing 2 μM poly(Glu)4Tyr and 10 μM ATP. This was then mixed and 50 μl of kinase buffer containing 2 nM JAK3 enzyme was added to start the reaction. After 20 minutes at room temperature (25° C.), the reaction was stopped with 50 μl of 20% trichloroacetic acid (TCA) that also contained 0.4 mM ATP. The entire contents of each well were then transferred to a 96 well glass fiber filter plate using a TomTek Cell Harvester. After washing, 60 μl of scintillation fluid was added and ^33P incorporation detected on a Perkin Elmer TopCount.
By Ki is commonly meant a dissociation constant, usually derived from enzyme kinetics or from competition with a known ligand. The low end stands for a stronger hold on the target, the high end for a looser hold on the target. As to `CC(C)NC(=O)c1cc(-c2nccc(NC(C)(C)C(=O)NCC(F)(F)F)n2)c[nH]1` [Compound 100], the Ki was 10 to 50 µM.
The same measure, in the same setting: in the case of `O=C(NCC(F)(F)F)[C@H]1CCCN1c1ccnc(-c2ccc3ncsc3c2)n1` [Compound 155] it was ≤ 1 µM.
Still for that read-out and setting: in the case of `CC(C)[C@@H](Nc1ccnc(-c2ccc3ncccc3c2)n1)C(=O)NCC(F)(F)F` [Compound 72] it was 1 to 10 µM; in that of `CC(C)[C@@H](Nc1ccnc(-c2c[nH]c(=O)c(N)c2)n1)C(=O)NCC(F)(F)F` [Compound 135], 10 to 50 µM.
The compound `O=C(CCNc1nc(-c2cccnc2)ncc1F)NCC(F)(F)F` [Compound 15] registered a Ki of 10 to 50 µM.
Same read-out and setting: the value for `CC(C)[C@@H](Nc1ccnc(-c2c[nH]c(C(=O)NCC3CC3)c2)n1)C(=O)NCC(F)(F)F` [Compound 112] was 1 to 10 µM; that for `COc1ccc(Nc2nc(N)n(-c3ncc(F)c(N4CCC[C@@H]4C(=O)NCC(F)(F)F)n3)n2)cc1` [Compound 39] was 1 to 10 µM.
Still for that read-out and setting: the value for `CC(C)(Nc1nc(-c2ccc3c(c2)OCO3)ncc1F)C(=O)NCC(F)(F)F` [Compound 67] was 1 to 10 µM; that for `CC(=O)Nc1nc2ccc(-c3nccc(N4CCC[C@@H]4C(=O)NCC(F)(F)F)n3)cc2s1` [Compound 63] was 10 to 50 µM.
`CC(C)[C@@H](Nc1ccnc(-c2ccc3nc(N)sc3c2)n1)C(=O)NCC(F)(F)F` [Compound 73] had a Ki of 1 to 10 µM.
Same read-out and setting: in the case of `COc1ccc(-c2nccc(NC(C)(C)C(=O)NCC(F)(F)F)n2)cn1` [Compound 80] it was 10 to 50 µM.
The same measure, in the same setting: the value for `CC(C)NC(=O)c1cc(-c2ncc(F)c(NC(C)(C)C(=O)NCC(F)(F)F)n2)c[nH]1` [Compound 96] was 10 to 50 µM; that for `O=C(NCC(F)(F)F)[C@H]1CCCN1c1nc(-c2ccc3ncsc3c2)ncc1F` [Compound 141] was 1 to 10 µM; that for `COc1ccc(Nc2nc(N)n(-c3ncc(F)c(NCCC(=O)NCC(F)(F)F)n3)n2)cc1` [Compound 50] was 1 to 10 µM.
The same measure, in the same setting: in the case of `CC(C)(Nc1nc(-c2c[nH]c3ccc(Cl)cc23)ncc1F)C(=O)NCC(F)(F)F` [Compound 156] it was 1 to 10 µM; in that of `CN(C)C(=O)c1cc(-c2nccc(NC(C)(C)C(=O)NCC(F)(F)F)n2)c[nH]1` [Compound 132], ≤ 1 µM; in that of `CC(C)(Nc1nc(-c2ccc3ncsc3c2)ncc1F)C(=O)NCC(F)(F)F` [Compound 140], ≤ 1 µM.
`CC(C)[C@@H](Nc1ccnc(-c2ccc3c(c2)OCO3)n1)C(=O)NCC(F)(F)F` [Compound 71] came in with a Ki of 10 to 50 µM.
Still for that read-out and setting: the value for `CC(C)[C@@H](Nc1nc(-c2c[nH]c(=O)c(N)c2)ncc1F)C(=O)NCC(F)(F)F` [Compound 137] was 10 to 50 µM; that for `O=C(NCC(F)(F)F)[C@H]1CCCN1c1ccnc(-c2ccc(=O)[nH]c2)n1` [Compound 83] was 10 to 50 µM.
On the same count and under the same terms, in the case of `O=C(NCC(F)(F)F)[C@H]1CCCN1c1ccnc(-c2ccc3ncccc3c2)n1` [Compound 60] it was 1 to 10 µM; in that of `CC(C)(Nc1ccnc(-c2ccc3nccnc3c2)n1)C(=O)NCC(F)(F)F` [Compound 163], ≤ 1 µM.
With `O=C(NCc1ccccc1)c1cc(-c2ncc(F)c(N3CCC[C@@H]3C(=O)NCC(F)(F)F)n2)c[nH]1` [Compound 116], the Ki lay in the range of 10 to 50 µM.
For the compound `COc1ccc(Nc2nc(N)n(-c3nccc(N[C@H](C(=O)NCC(F)(F)F)C(C)C)n3)n2)cc1` [Compound 42], the Ki is ≤ 1 µM.
Same read-out and setting: in the case of `CC(C)[C@H](Nc1ccnc(-c2cccnc2N)n1)C(=O)NCC(F)(F)F` [Compound 28] it was 1 to 10 µM; in that of `CC(C)[C@@H](Nc1nc(-c2ccc3ncccc3c2)ncc1F)C(=O)NCC(F)(F)F` [Compound 77], 1 to 10 µM; in that of `Nc1nc(Nc2ccc([C@H]3CC[C@H](N4CCOCC4)CC3)cc2)nn1-c1ncc(F)c(N2CCC[C@@H]2C(=O)NCC(F)(F)F)n1` [Compound 49], 1 to 10 µM.
Same read-out and setting: in the case of `CNC(=O)c1cc(-c2ncc(F)c(N[C@@H](C(=O)NCC(F)(F)F)C(C)C)n2)c[nH]1` [Compound 103] it was 10 to 50 µM; in that of `C[C@H](Nc1nc(-n2nc(Nc3ccc(F)cc3)nc2N)ncc1F)C(=O)NCC(F)(F)F` [Compound 45], 1 to 10 µM; in that of `CC(C)(Nc1nc(-c2c[nH]c(C(=O)N3CCCC3)c2)ncc1F)C(=O)NCC(F)(F)F` [Compound 97], ≤ 1 µM.
For the compound `CC(C)[C@@H](Nc1ccnc(-c2c[nH]c3ccc(Cl)cc23)n1)C(=O)NCC(F)(F)F` [Compound 161], the Ki lay in the range of 10 to 50 µM.
In the case of `Nc1nc(Nc2ccc(F)cc2)nn1-c1cc(N2CCC[C@@H]2C(=O)NCC(F)(F)F)ncn1` [Compound 37], the Ki is ≤ 1 µM.
Turning to `Nc1nc(Nc2ccc(F)cc2)nn1-c1cc(NCCC(=O)NCC(F)(F)F)ncn1` [Compound 35], the Ki is ≤ 1 µM.
The compound `CC(C)[C@@H](Nc1nc(-c2ccc3c(c2)OCO3)ncc1F)C(=O)NCC(F)(F)F` [Compound 76] showed a Ki of 10 to 50 µM.
On the same count and under the same terms, in the case of `CC(C)(Nc1ccnc(-c2cccnc2N)n1)C(=O)NCC(F)(F)F` [Compound 31] it was 1 to 10 µM.
Still for that read-out and setting: in the case of `Nc1nc(Nc2ccc(F)cc2)nn1-c1cc(NCC(=O)NCC(F)(F)F)ncn1` [Compound 36] it was ≤ 1 µM; in that of `C[C@H](Nc1nc(-c2ccc(N)nc2)ncc1F)C(=O)NCC(F)(F)F` [Compound 6], 10 to 50 µM.

Staying with this experiment, now noted: at concentrations of 5.0 μM.
Take `Nc1nc(Nc2cccnc2)nn1-c1ncc(F)c(N2CCC[C@@H]2C(=O)NCC(F)(F)F)n1` [Compound 46]: the “inhibition of JAK3 at concentrations of 5.0 μM” value is on record as “did not inhibit”.
The same measure, in the same setting: in the case of `COc1ccc(Nc2nc(N)n(-c3ncc(F)c(N4CCC[C@@H]4C(=O)NCC(F)(F)F)n3)n2)c(C)c1` [Compound 40] it was “did not inhibit”.
Turning to `Nc1nc(NCC2CCCO2)nn1-c1ncc(F)c(N2CCC[C@@H]2C(=O)NCC(F)(F)F)n1` (stereo partly drawn) [Compound 55], the “inhibition of JAK3 at concentrations of 5.0 μM” value was “did not inhibit”.

The same experiment, now with this note: at concentrations of 50 μM.
On to `O=C(CCNc1nc(-c2ccc(F)nc2)ncc1F)NCC(F)(F)F` [Compound 13], for which the “inhibition of JAK3 at concentrations of 50 μM” value (shortened to “inhibition of JAK3 … of 50 μM”) is listed as “did not inhibit”.
Consider `CC(C)NC(=O)c1cc(-c2nccc(N[C@@H](C(=O)NCC(F)(F)F)C(C)C)n2)c[nH]1` [Compound 111], for which the “inhibition of JAK3 … of 50 μM” value is “did not inhibit”.
As to `COc1ccc(-c2ncc(F)c(N3CCC[C@@H]3C(=O)NCC(F)(F)F)n2)cn1` [Compound 91], the “inhibition of JAK3 … of 50 μM” value was “did not inhibit”.
On the same count and under the same terms, in the case of `CC(C)[C@@H](Nc1nc(-c2c[nH]c3ccc(Cl)cc23)ncc1F)C(=O)NCC(F)(F)F` [Compound 160] it was “did not inhibit”; in that of `O=C(NCC(F)(F)F)[C@H]1CCCN1c1nc(-c2ccc(F)nc2)ncc1F` [Compound 22], “did not inhibit”.
Still for that read-out and setting: the value for `COc1ccc(-c2nccc(N3CCC[C@@H]3C(=O)NCC(F)(F)F)n2)cn1` [Compound 62] was “did not inhibit”; that for `O=C(CCNc1nc(-c2cn[nH]c2)ncc1F)NCC(F)(F)F` [Compound 16] was “did not inhibit”; that for `O=C(NCC(F)(F)F)[C@H]1CCCN1c1nc(-c2cccnc2F)ncc1F` [Compound 21] was “did not inhibit”.
The same measure, in the same setting: the value for `CC(C)(Nc1nc(-c2ccc3c(c2)OCCO3)ncc1F)C(=O)NCC(F)(F)F` [Compound 125] was “did not inhibit”; that for `C[C@@H](Nc1nc(-c2cccnc2F)ncc1F)C(=O)NCC(F)(F)F` [Compound 17] was “did not inhibit”.
On to `COc1ccc(-c2ncc(F)c(NC(C)(C)C(=O)NCC(F)(F)F)n2)cn1` [Compound 69], for which the “inhibition of JAK3 … of 50 μM” value is “did not inhibit”.
